This is an account of results in US20180305332A1, “Bispiperidinyl Derivatives as Liver X Receptor Beta Agonists, Compositions, and Their Use” (Merck Sharp & Dohme Corp., priority 2015, published 2018).

Experiment [1] addresses T1, GST tagged LXRalpha LBD (ligand binding domain) (Homo sapiens, UniProt Q13133).
T1 construct: purchased Invitrogen pv4655
T1 sequence (Q13133 209-447 limits assumed): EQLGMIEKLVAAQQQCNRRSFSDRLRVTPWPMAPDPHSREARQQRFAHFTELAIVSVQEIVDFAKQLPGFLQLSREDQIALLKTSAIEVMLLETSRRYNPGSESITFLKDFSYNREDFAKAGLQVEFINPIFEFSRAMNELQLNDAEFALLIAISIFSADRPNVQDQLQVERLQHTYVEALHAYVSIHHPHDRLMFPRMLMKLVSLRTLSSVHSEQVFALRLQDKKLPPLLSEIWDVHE
The experiment is described as follows: LanthaScreen TR-FRET Liver X Receptor Coactivator Assay, LXR alpha-LBD. The format is biochemical. The note with it: relative to reference T0901317; for EC50 / LXR alpha IP (nM): Inflection Point (potency), co-activator recruitment; for EC50: read-out: LXR alpha IP; for Emax: activity at max dose (efficacy), read-out: LXR alpha act @ max dose (%). Here is the method:
(§1) Potency (Inflection Point, IP) and efficacy (Emax) are evaluated via compound-induced co-activator recruitment to glutathione-S-transferase (GST) tagged LXRbeta and LXRalpha LBD (ligand binding domain) proteins in relation to reference dual agonist compound T0901317 (N-(2,2,2-Trifluoroethyl)-N-[4-[2,2,2-trifluoro-1-hydroxy-1-(trifluoromethyl)ethyl] phenyl]benzenesulfonamide) using the LanthaScreen™ TR-FRET Liver X Receptor Coactivator Assays according to manufacturer's instructions (Invitrogen catalog number pv4658.pps and pv4655). While running the LanthaScreen™ TR-FRET Liver X Receptor Coactivator Assay, LXR alpha-LBD or LXR beta-LBD was added to ligand test compounds followed by addition of a mixture of a fluorescein-labelled coactivator peptide and terbium-conjugated anti-GST antibody. After an incubation period at room temperature, TR-FRET (time-resolved fluorescence resonance energy transfer) was measured using a filter-based instrument capable of TR-FRET, e.g. PerkinElmer Envision.
In general terms: In TR-FRET formats the signal depends on donor and acceptor labels being close together.

The target of experiment [2] is T2, GST tagged LXRbeta LBD (ligand binding domain) (Homo sapiens, UniProt P55055).
T2 construct: purchased Invitrogen pv4658.pps
T2 sequence (P55055 222-460 limits assumed): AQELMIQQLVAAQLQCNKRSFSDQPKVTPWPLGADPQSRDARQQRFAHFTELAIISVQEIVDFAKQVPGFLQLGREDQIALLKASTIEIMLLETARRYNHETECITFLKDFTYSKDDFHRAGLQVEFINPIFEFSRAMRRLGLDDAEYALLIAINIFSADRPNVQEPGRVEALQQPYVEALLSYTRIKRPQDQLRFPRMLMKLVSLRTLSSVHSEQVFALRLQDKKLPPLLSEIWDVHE
The experiment is described as follows: LanthaScreen TR-FRET Liver X Receptor Coactivator Assay, LXR beta-LBD. Particulars: relative to reference T0901317; for EC50: Inflection Point (potency), co-activator recruitment, read-out: LXR beta IP; for Emax: activity at max dose (efficacy), read-out: LXR beta act @ max dose (%). The format is biochemical. The protocol: as §1

For `Cc1ccccc1S(=O)(=O)N1CCC(C2CCN(c3ccc(C(=O)N(C)C)c(Cl)c3)CC2)CC1` [Example A-100, 2-chloro-N,N-dimethyl-4-{1′-[(2-methylphenyl)sulfonyl]-4,4′-bipiperidin-1-yl}benzamide], the EC50 is 5770 nM in experiment [1] and 140 nM in experiment [2]. Moreover, the Emax in experiment [1] is 48%; in experiment [2], 121%.
On to `O=C(c1ccc(N2CCC(C3CCN(C(=O)[C@](O)(c4ccccc4)C(F)(F)F)CC3)CC2)cc1Cl)N1CCCC1C(F)(F)F` (stereo partly drawn) [Example E-21, (2R)-3-[1′-(3-chloro-4-{[2-(trifluoromethyl)pyrrolidin-1-yl]carbonyl}phenyl)-4,4′-bipiperidin-1-yl]-1,1,1-trifluoro-3-oxo-2-phenylpropan-2-ol], for which, in experiment [1], the “LXR alpha IP (nM)” value is on record as “NO IP” and the Emax turned out to be 13%. In experiment [2], the EC50 turned out to be 95 nM and the Emax was 62%.
`Cc1nc(CCN(C)C(=O)c2ccc(N3CCC(C4CCN(C(=O)[C@](O)(c5ccccc5)C(F)(F)F)CC4)CC3)cc2Cl)no1` [Example E-55, 2-chloro-N-methyl-N-[2-(5-methyl-1,2,4-oxadiazol-3-yl)ethyl]-4-{1′-[(2R)-3,3,3-trifluoro-2-hydroxy-2-phenylpropanoyl]-4,4′-bipiperidin-1-yl}benzamide]: in experiment [1], the EC50 is 1110 nM and the Emax stood at 41%. For the same compound, in experiment [2], the EC50 is 66 nM and the Emax turned out to be 106%.
In the same order, the values of `CN(C)C(=O)c1ccc(N2CCC(C3CCN(C(=O)C(C)(c4ccccc4)C(F)(F)F)CC3)CC2)cc1Cl` (stereo not shown) [Example A-16, 2-chloro-N,N-dimethyl-4-[1′-(3,3,3-trifluoro-2-methyl-2-phenylpropanoyl)-4,4′-bipiperidin-1-yl]benzamide] are 861 nM, 33%, 14 nM and 109%.
`Cc1nnc(CN(C)C(=O)c2ccc(N3CCC(C4CCN(C(=O)[C@](O)(c5ccccc5)C(F)(F)F)CC4)CC3)cc2Cl)o1` [Example E-47, 2-chloro-N-methyl-N-[(5-methyl-1,3,4-oxadiazol-2-yl)methyl]-4-{1′-[(2R)-3,3,3-trifluoro-2-hydroxy-2-phenylpropanoyl]-4,4′-bipiperidin-1-yl}benzamide]: in experiment [1], the “LXR alpha IP (nM)” value is given as “NO IP” and the Emax stood at 10%. For the same compound, in experiment [2], the EC50 stood at 334 nM and the Emax amounted to 71%.
In the case of `CCCC(O)(C(=O)N1CCC(C2CCN(c3ccc(C(=O)N(C)C)c(Cl)c3)CC2)CC1)C(F)(F)F` (stereo not shown) [Example A-70, 2-chloro-4-{1′-[2-hydroxy-2-(trifluoromethyl)pentanoyl]-4,4′-bipiperidin-1-yl}-N,N-dimethylbenzamide], the EC50 in experiment [1] turned out to be 3000 nM; in experiment [2] it was 177 nM. Moreover, the Emax in experiment [1] was 52%; in experiment [2] it was 109%.
In the same order, the values of `COC(=O)c1ccc(N2CCC(C3CCN(C(=O)c4c(F)cccc4F)CC3)CC2)cc1Cl` [Example E-2, methyl 2-chloro-4-{1′-[(2,6-difluorophenyl)carbonyl]-4,4′-bipiperidin-1-yl}benzoate] are 58 nM, 153 nM, 26% and 25%.
In the same order, the values of `CN(C)C(=O)c1ccc(N2CCC(C3CCN(C(=O)C4(c5ccccc5)CCCC4)CC3)CC2)cc1Cl` [Example A-40, 2-chloro-N,N-dimethyl-4-{1′-[(1-phenylcyclopentyl)carbonyl]-4,4′-bipiperidin-1-yl}benzamide] are 940 nM, 37 nM, 41% and 113%.
Consider `O=C(c1ccc(N2CCC(C3CCN(C(=O)[C@](O)(c4ccccc4)C(F)(F)F)CC3)CC2)cc1Cl)N1CC(F)(F)C1` [Example E-34, (2R)-3-(1′-{3-chloro-4-[(3,3-difluoroazetidin-1-yl)carbonyl]phenyl}-4,4′-bipiperidin-1-yl)-1,1,1-trifluoro-3-oxo-2-phenylpropan-2-ol], for which, in experiment [1], the “LXR alpha IP (nM)” value was “NO IP” and the Emax turned out to be 28%. Further, in experiment [2], the EC50 amounted to 450 nM and the Emax came out at 83%.
As for `O=C(c1ccc(N2CCC(C3CCN(C(=O)[C@](O)(c4ccccc4)C(F)(F)F)CC3)CC2)cc1Cl)N1CCCC2(CC2)C1` [Example E-37, (2R)-3-{1′-[4-(5-azaspiro[2.5]oct-5-ylcarbonyl)-3-chlorophenyl]-4,4′-bipiperidin-1-yl}-1,1,1-trifluoro-3-oxo-2-phenylpropan-2-ol], in experiment [1], the “LXR alpha IP (nM)” value is recorded as “NO IP” and the Emax is 5%. Further, in experiment [2], the EC50 came out at 216 nM and the Emax was 70%.
`CN(C)C(=O)c1ccc(N2CCC(C3CCN(C(=O)C4(c5ccccc5)CCC4)CC3)CC2)cc1Cl` [Example A-14, 2-chloro-N,N-dimethyl-4-{1′-[(1-phenylcyclobutyl)carbonyl]-4,4′-bipiperidin-1-yl}benzamide]: in experiment [1], the EC50 came to 1530 nM and the Emax turned out to be 38%. Further, in experiment [2], the EC50 worked out at 36 nM and the Emax is 114%.
The corresponding values for `CC(C)[C@@](O)(C(=O)N1CCC(C2CCN(c3ccc(C(=O)N(C)C)c(Cl)c3)CC2)CC1)C(F)(F)F` (single isomer, unassigned) [Example A-2] are 1030 nM, 41%, 35 nM and 100%.
Regarding `CC(C)C(O)(C(=O)N1CCC(C2CCN(c3ccc(C(=O)N(C)C)cc3Cl)CC2)CC1)C(F)(F)F` [Example D-3, 3-chloro-4-{1′-[2-hydroxy-3-methyl-2-(trifluoromethyl)butanoyl]-4,4′-bipiperidin-1-yl}-N,N-dimethylbenzamide], in experiment [1], the EC50 was found to be 1570 nM and the Emax came out at 67%. For the same compound, in experiment [2], the EC50 amounted to 273 nM and the Emax turned out to be 118%.
Consider `CC1CCCN(C(=O)c2ccc(N3CCC(C4CCN(C(=O)[C@](O)(c5ccccc5)C(F)(F)F)CC4)CC3)cc2Cl)C1` (stereo partly drawn) [Example E-38, (2R)-3-(1′-{3-chloro-4-[(3-methylpiperidin-1-yl)carbonyl]phenyl}-4,4′-bipiperidin-1-yl)-1,1,1-trifluoro-3-oxo-2-phenylpropan-2-ol], for which, in experiment [1], the “LXR alpha IP (nM)” value is listed as “NO IP” and the Emax worked out at 0%. For the same compound, in experiment [2], the EC50 came to 276 nM and the Emax came out at 57%.
Regarding `CN(C)C(=O)c1ccc(N2CCC(C3CCN(C(=O)C(F)(F)c4ccccc4Cl)CC3)CC2)cc1Cl` [Example A-62, 2-chloro-4-{1′-[(2-chlorophenyl)(difluoro)acetyl]-4,4′-bipiperidin-1-yl}-N,N-dimethylbenzamide], the EC50 in experiment [1] was 782 nM; in experiment [2], 22 nM. Besides, the Emax in experiment [1] is 74%; in experiment [2], 131%.
In the case of `O=C(c1ccc(N2CCC(C3CCN(C(=O)[C@](O)(c4ccccc4)C(F)(F)F)CC3)CC2)cc1Cl)N(CCF)CCF` [Example E-67, 2-chloro-N,N-bis(2-fluoroethyl)-4-{1′-[(2R)-3,3,3-trifluoro-2-hydroxy-2-phenylpropanoyl]-4,4′-bipiperidin-1-yl}benzamide], in experiment [1], the EC50 worked out at 2100 nM and the Emax came to 30%. Also, in experiment [2], the EC50 was 171 nM and the Emax was determined as 106%.
In the same order, the values of `CN(C)C(=O)c1ccc(N2CCC(C3CCN(C(=O)OC(C)(C)C)CC3)CC2)nc1Cl` [Example B-1, tert-butyl 1′-[6-chloro-5-(dimethylcarbamoyl)pyridin-2-yl]-4,4′-bipiperidine-1-carboxylate] are 1550 nM, 74%, 20 nM and 119%.
In the same order, the values of `CN(C)C(=O)c1ccc(N2CCC(C3CCN(C(=O)[C@@](O)(c4ccccc4)C(F)(F)C(F)(F)F)CC3)CC2)nc1Cl` (single isomer, unassigned) [Example B-17] are 854 nM, 39%, 30 nM and 130%.
In the same order, the values of `CC(C)(C(=O)N1CCC(C2CCN(c3ccc(C(=O)N4CCCC4)c(Cl)c3)CC2)CC1)c1ccccc1` [Example E-18, 1-[3-chloro-4-(pyrrolidin-1-ylcarbonyl)phenyl]-1′-(2-methyl-2-phenylpropanoyl)-4,4′-bipiperidine] are 1280 nM, 52%, 73 nM and 99%.
